In patent US20220386611A1, “NOVEL HETEROARYL-TRIAZOLE COMPOUNDS AS PESTICIDES” (Bayer Aktiengesellschaft, priority 2019, published 2022):

What was measured:
Type in all cases: in vivo
[1] = tested on: adult engorged female ticks (Rhipicephalus microplus); test: Rhipicephalus (Boophilus) microplus injection test; details: 168 h, 4 μg/animal, after 7 days, read-out: efficacy (infertile eggs)
Protocol: Rhipicephalus (Boophilus) microplus—Injection Test
(§1) Solvent: dimethyl sulfoxide
To produce a suitable preparation of active compound, 10 mg of active compound are dissolved in 0.5 mL solvent, and the concentrate is diluted with solvent to the desired concentration.
Five adult engorged female ticks (Rhipicephalus microplus) are injected with 1 μL compound solution into the abdomen. The ticks are transferred into replica plates and incubated in a climate chamber.
After 7 days egg deposition of fertile eggs is monitored. Eggs where fertility is not visible are stored in a climate chamber till hatching after about 42 days. An efficacy of 100% means all eggs are infertile; 0% means all eggs are fertile.

[2] = tested on: Rhipicephalus microplus larvae (strain Parkhurst, resistant against synthetic pyrethroids); test: Rhipicephalus (Boophilus) microplus in-vitro contact test, larval cattle tick; details: 5 μg/cm^2 (=500 g/ha), after 48 hours, read-out: efficacy (larvae dead or moribund)
Protocol: Rhipicephalus (Boophilus) Microplus—In-Vitro Contact Tests Larval Cattle Tick (Strain Parkhurst, Resistant Against Synthetic Pyrethroids)
(§2) 9 mg compound is solved in 1 mL acetone and diluted with acetone to the desired concentration. 250 μL of the test solution is filled in 25 mL glass test tubes and homogeneously distributed on the inner walls by rotation and tilting on a shaking device (2 h at 30 rpm). With a compound concentration of 900 ppm, an inner surface of 44.7 cm^2 and a homogeneous distribution, a dose of 5 μg/cm^2 is achieved.
After the solvent has evaporated, each test tube is filled with 20-50 cattle tick larvae (Rhipicephalus microplus), closed with a perforated lid and incubated in a horizontal position at 85% relative humidity and 27° C. in an incubator. After 48 hours efficacy is determined. The larvae are patted on the ground of the tubes and negative geotactic behaviour is recorded.
An efficacy of 100% means all larvae are dead or moribund; 0% means no larvae are dead or moribund.

[3] = tested on: green peach aphid (Myzus persicae); test: Myzus persicae oral test; details: 120 h
Protocol: Solvent: 100 parts by weight acetone
To produce a suitable preparation of active compound, 1 part by weight of active compound is mixed with the stated amount of solvent, and the concentrate is diluted with water to the desired concentration. 50 μL compound solution is filled in microtiter plates and 150 μL IPL41 insect medium (33%+15% sugar) is added to obtain a total volume of 200 μL per well. Afterwards the plates are sealed with parafilm through which a mixed population of the green peach aphid (Myzus persicae) can suck on the compound preparation.
(§3) After 5 days mortality in % is determined. 100% means all aphids have been killed and 0% means none of the aphids have been killed.

[4] = tested on: adult unfed cat fleas (Ctenocephalides felis); test: Ctenocephalides felis oral test; details: 48 h
Protocol: Ctenocephalides felis—Oral Test
as §1
To produce a suitable preparation of active compound, 10 mg of active compound are dissolved in 0.5 ml solvent, and the concentrate is diluted with cattle blood to the desired concentration.
Approximately 20 adult unfed cat fleas (Ctenocephalides felis) are placed in flea chambers. The blood chamber, sealed with parafilm on the bottom, are filled with cattle blood supplied with compound solution and placed on the gauze covered top of the flea chamber, so that the fleas are able to suck the blood. The blood chamber is heated to 37° C. whereas the flea chamber is kept at room temperature.
After 2 days mortality in % is determined. 100% means all the fleas have been killed; 0% means none of the fleas have been killed.

[5] = tested on: Anopheles funestus strain FUMOZ-R; test: Anopheles funestus test (ANPHFU surface treatment & contact assay); details: surface concentration 20 mg/m^2, 30 minutes exposure, 24 hours after contact, read-out: efficacy (mortality)
Protocol: Anopheles funestus Test (ANPHFU Surface Treatment & Contact Assay)
(§4) Solvent: Aceton+2000 ppm rapeseed oil methyl ester (RME)
(§5) In order to produce a sufficient, active ingredient containing solution it is necessary to solve the test compound in the solvent-mix (acetone at 2 mg/ml/RME 2000 ppm). This solution is pipetted onto a glazed tile and after evaporation of the acetone, adult mosquitoes of the species Anopheles funestus strain FUMOZ-R (Hunt et al., Med. Vet. Entomol. 2005 September; 19(3): 271-275) are placed onto the dried surface. The exposure time is 30 minutes. Mortality in percent (%) is determined 24 hours after contact of the insects to the treated surface. 100% mortality means that all tested insects are dead, whereas 0% means that no insect died.

[6] = tested on: Aedes aegypti strain MONHEIM; test: Aedes aegypti test (AEDSAE surface treatment & contact assay); details: 24 hours after contact, read-out: efficacy (mortality); for mortality at 4 mg/m2: surface concentration 4 mg/m^2, 30 minutes exposure
Protocol: Aedes Aegypti Test (AEDSAE Surface Treatment & Contact Assay)
as §4
as §5, with “Aedes aegypti” for “Anopheles funestus”, “MONHEIM” for “FUMOZ-R (Hunt et al., Med. Vet. Entomol. 2005 September; 19(3): 271-275)”

[7] = tested on: larvae of the southern green stink bug (Nezara viridula); test: Nezara viridula spray test; details: 96 h, after 4 days, barley plants
Protocol: Nezara viridula—Spray Test
Solvent: 78.0 parts by weight of acetone • • 1.5 parts by weight of dimethylformamide
(§6) Emulsifier: alkylarylpolyglycol ether
(§7) To produce a suitable preparation of active compound, 1 part by weight of active compound is mixed with the stated amount of solvent, and the concentrate is diluted with water, containing an emulsifier concentration of 1000 ppm, to the desired concentration. Further test concentrations are prepared by dilution with emulsifier containing water.
Barley plants (Hordeum vulgare) infested with larvae of the southern green stink bug (Nezara viridula) are sprayed with a test solution containing the desired concentration of the active ingredient.
After 4 days mortality in % is determined. 100% means all the stink bugs have been killed; 0% means none of the stink bugs have been killed.

[8] = tested on: green peach aphid (Myzus persicae); test: Myzus persicae spray test; details: foliar, 120 h, after 5 days, Chinese cabbage leaf disks
Protocol: Myzus persicae—spray test
Solvent: 78.0 parts by weight acetone • 1.5 parts by weight dimethylformamide
as §6
as §7, with “solvents” for “solvent,”, “and” for “and the concentrate”
Chinese cabbage (Brassica pekinensis) leaf disks infected with all instars of the green peach aphid (Myzus persicae), are sprayed with a preparation of the active ingredient of the desired concentration.
as §3

[9] = tested on: adult brown dog ticks (Rhipicephalus sanguineus); test: Rhipicephalus sanguineus in-vitro contact test with adult brown dog ticks; details: 5 μg/cm^2 (=500 g/ha), after 48 hours, read-out: efficacy (ticks dead or moribund)
Protocol: Rhipicephalus sanguineus—In-Vitro Contact Tests with Adult Brown Dog Ticks
as §2
After the solvent has evaporated, each test tube is filled with 5-10 adult brown dog ticks (Rhipicephalus sanguineus), closed with a perforated lid and incubated in a lying position at room temperature and relative humidity. After 48 hours efficacy is determined. The ticks are patted on the ground of the tubes and are incubated on a heating plate at 45-50° C. for at most 5 minutes. Immotile or uncoordinated moving ticks, which are not able to escape the heat by climbing upwards, are marked as dead or moribund.
An efficacy of 100% means all ticks are dead or moribund; 0% means no ticks are dead or moribund.

[10] = tested on: larvae of the banded cucumber beetle (Diabrotica balteata); test: Diabrotica balteata spray test; details: 168 h, 100 g/ha (=32 μg/well), after 7 days, wheat seeds, read-out: efficacy (seedlings grown like untreated, uninfected control)
Protocol: Diabrotica balteata—spray test
Solvent: 78.0 parts by weight of acetone
1.5 parts by weight of dimethylformamide
as §6, §7
Soaked wheat seeds (Triticum aestivum) are placed in a multiple well plate filled with agar and some water and are incubated for 1 day to germinate (5 seeds per well). The germinated wheat seeds are sprayed with a test solution containing the desired concentration of the active ingredient. Afterwards each unit is infected with 10-20 larvae of the banded cucumber beetle (Diabrotica balteata).
After 7 days efficacy in % is determined. 100% means all the seedlings have grown up like in the untreated, uninfected control; 0% means none of the seedlings have grown.

[11] = tested on: adult cat fleas (Ctenocephalides felis); test: Ctenocephalides felis in-vitro contact test, adult cat flea; details: after 48 hours, read-out: efficacy (fleas dead or moribund)
Protocol: as §2, with “Ctenocephalides felis—In-Vitro Contact Tests Adult Cat Flea 9 mg” for “9 mg”
After the solvent has evaporated, each test tube is filled with 5-10 adult cat fleas (Ctenocephalidesfelis), closed with a perforated lid and incubated in a lying position at room temperature and relative humidity.
After 48 hours efficacy is determined. The fleas are patted on the ground of the tubes and are incubated on a heating plate at 45-50° C. for at most 5 minutes. Immotile or uncoordinated moving fleas, which are not able to escape the heat by climbing upwards, are marked as dead or moribund.
An efficacy of 100% means all fleas are dead or moribund; 0% means no fleas are dead or moribund.

| Compound | pest or weed control at 0.004 mg [1] | pest or weed control at 5 µg/cm2 [2] | mortality at 4 ppm [3] | mortality at 100 ppm [4] | mortality at 20 mg/m2 [5] | mortality at 4 mg/m2 [6] | mortality at 20 mg/m2 ([6]; surface concentration 20 mg/m^2, 30 minutes exposure) | mortality at 100 g/ha [7] | mortality at 100 g/ha [8] | pest or weed control at 5 µg/cm2, 500 g/ha [9] | pest or weed control at 32 µg/disc, 100 g/ha [10] | pest or weed control at 1 µg/cm2, 100 g/ha ([11]; 1 μg/cm^2 (=100 g/ha)) | pest or weed control at 5 µg/cm2, 500 g/ha ([11]; 5 μg/cm^2 (=500 g/ha)) |
| --- | --- | --- | --- | --- | --- | --- | --- | --- | --- | --- | --- | --- | --- |
| CC(NC(=O)c1cncc(C(F)(F)F)c1)c1nc(Cl)nn1-c1ncccn1 (stereo not shown) [Example I-007] | 100% | 100% | 90% | 100% | 80 to 100% | 80 to 100% | 80 to 100% | 90% | 90% | 100% | – | – | – |
| CC(NC(=O)c1cc(Cl)nc(C(F)(F)F)c1)c1nc(Cl)nn1-c1ncccn1 (stereo not shown) [Example I-008] | 100% | 100% | – | 100% | – | 80 to 100% | – | 100% | – | 100% | 80% | 90% | 90% |
